The values below come from US11680298B2, “Method of identifying risk of cancer and therapeutic options” (Agency for Science, Technology and Research, priority 2016, dated 2023).

Data set [1] relates to MB231 tumourspheres. The data set can be described thus: Mammosphere (tumoursphere) formation assay, MB231. The class given is cell-based. The conditions noted are these: MB231 cell line. The protocol:
(§1) Mammosphere Formation Assay PDX-derived tumoursphere cells were trypsinized and passed through 40 μm cell strainer to achieve single cell suspensions. 3×10^4 cells were seeded in 6-well ultra-low attachment plates (Corning, N.Y.; CLS3471) in serum-free DMEM/F12 supplemented with N2 and B27 (Gibco, Grand Island, N.Y.), 20 ng/ml epidermal growth factor (MACS, Auburn, Calif.), 20 ng/ml basic fibroblast growth factor (MACS, Auburn, Calif.), 0.2 μM Thiazovivin ([…] Technologies, Vancouver, BC) and penicillin/streptomycin (Gibco, Carlsbad, Calif.). For breast cancer cell lines and MCF10A cell line, 3×10^4 cells were seeded in 6-well ultra-low attachment plates in Mammocult medium (Stem Cell Technologies, Vancouver, BC, Canada), supplemented with fresh hydrocortisone (0.5 μg/ml) and heparin (1:500). Mammospheres were maintained at 37° C. with 5% CO2 and topped up with medium every 3 days. After 7-9 days, mammospheres were stained with INT (2-(4-iodophenyl)-3-(4-nitrophenyl)-5-phenyl-2H-tetrazolium chloride, Sigma-Aldrich) and quantified. Imaging and quantification were done using GelCount apparatus and associated software (Oxford Optronix, Abingdon, UK). […] Cell Proliferation Assay

Data set [2] has as its target T1, IRAK1 (Homo sapiens, UniProt P51617). Description: Western blot of phospho-IRAK1 in breast cancer cells and patient-derived tumourspheres. More on the design: endogenous in cells; host or cells: MB468 and MB231 cells; PDX-derived tumourspheres. The class given is cell-based. The protocol:
Recombinant IL-1p (Cat no: 200-01B) was purchased from Peprotech (Rocky Hill, N.J.). Recombinant S100A7 (Cat no: pro-149), S100A8 (Cat no: pro-800) and S100A9 (Cat no: pro-814), were purchased from ProSpec (East Brunswick, N.J.). Cells were treated with recombinant proteins at stated concentration for 20 min before harvesting for western blot. Paclitaxel (Cat no: P-9600) was purchased from LC Lab (Woburn, Mass.).
(§2) All immunoblots shown in this specification represent at least two independent experiments. In brief, cells were washed with PBS and lysed in RIPA buffer supplemented with protease and phosphatase inhibitors and further sonicated using an XL2000 Microson Ultrasonice Processor (Misonix). Equal amounts of protein extract were separated on SDS-polyacrylamided gels and transferred to PVDF membranes. Membranes were further blocked with 5% milk or BSA, and then probed with the following antibodies: anti-IRAK1 was purchased from Santa Cruz Biotechnology (Santa Cruz, Calif.; sc-7883), anti-phospho-IRAK1 (T209) was purchased from Assay Biotech (Sunnyvale, Calif.; A1074), anti-JAK2 (Danvers, Mass.; #3230) and anti-phospho-JAK2 ([…]) (Danvers, Mass.: #3774) were purchased from Cell Signaling Technology, anti-actin was purchased from Sigma Aldrich CA; A5441). For protein extraction of xenograft tumours, snap frozen samples were resuspended in RIPA buffer supplemented with protease and phosphatase inhibitors and homogenized with QIAGEN TissueLyzer II as described by the manufacturer, followed by immunoblotting as described above.

Data set [3] deals with HCC70 xenograft tumours. Description: In vivo pacritinib sensitivity test, HCC70 orthotopic xenograft. More on the design: species or system NOD-SCID mice. The conditions noted are these: 1q21.3-amplified HCC70; 50, 100 and 150 mg/kg pacritinib daily by oral gavage for 21 days.
Data set [4] has as its system MB231 tumours. The data set can be described thus: In vivo pacritinib sensitivity test, MB231 orthotopic xenograft. More on the design: species or system NOD-SCID mice. The conditions noted are these: 1q21.3 non-amplified MB231; 50, 100 and 150 mg/kg pacritinib daily by oral gavage for 21 days.
The target in data set [5] is T1, IRAK1. The data set can be described thus: Western blot of phospho-IRAK1 in HCC70 xenograft. Set-up: For protein extraction of xenograft tumours, snap frozen samples were resuspended in RIPA buffer; from tissue; host or cells: HCC70 xenograft tumour from NOD-SCID mice. The class given is in vivo, NOD-SCID mice. The conditions noted are these: HCC70 xenograft (n=4) treated with pacritinib. The protocol: Mice were then dosed daily by oral gavage for 21 days. Tumour growth was monitored for 1 month.
as §2
For orientation: Immunoblotting shows a protein as a band on a membrane.

For data set [6], the system named is HCC1937. The data set can be described thus: Tumoursphere growth, HCC1937. The class given is cell-based. The conditions noted are these: HCC1937, negative for 1q21.3 amplification, high phospho-IRAK1 and phospho-JAK2. The protocol: (§3) For this purpose, the 1q21.3 gene amplification in a series of breast cancer cell lines was profiled using ddPCR (FIG. 6A). Of note, 1q21.3 status in these cell lines was in general correlated with phospho-IRAK1 and expression of S100A8/9 (FIG. 6B and FIG. 14A), but not with phospho-JAK2 status (FIG. 6B).
(§4) Mammosphere Formation Assay PDX-derived tumoursphere cells were trypsinized and passed through 40 μm cell strainer to achieve single cell suspensions. 3×10^4 cells were seeded in 6-well ultra-low attachment plates (Corning, N.Y.; CLS3471) in serum-free DMEM/F12 supplemented with N2 and B27 (Gibco, Grand Island, N.Y.), 20 ng/ml epidermal growth factor (MACS, Auburn, Calif.), 20 ng/ml basic fibroblast growth factor (MACS, Auburn, Calif.), 0.2 μM Thiazovivin ([…] Technologies, Vancouver, BC) and penicillin/streptomycin (Gibco, Carlsbad, Calif.). For breast cancer cell lines and MCF10A cell line, 3×10^4 cells were seeded in 6-well ultra-low attachment plates in Mammocult medium (Stem Cell Technologies, Vancouver, BC, Canada), supplemented with fresh hydrocortisone (0.5 μg/ml) and heparin (1:500). […] After 7-9 days, mammospheres were stained with INT (2-(4-iodophenyl)-3-(4-nitrophenyl)-5-phenyl-2H-tetrazolium chloride, Sigma-Aldrich) and quantified. Imaging and quantification were done using GelCount apparatus and associated software (Oxford Optronix, Abingdon, UK). […]

The test system of data set [7] is MB468 tumourspheres. Description: Mammosphere (tumoursphere) formation assay, MB468. Type of data set: cell-based. The following applies: MB468 cell line. The protocol:
as §1

For data set [8], the target named is T1, IRAK1. The conditions noted are these: recently reported; cited from earlier work.
Data set [9] is described as follows: Tolerability during treatment in the PDX mouse model. The following applies: in vivo. The protocol: Surgical procedures and experiments were conducted in compliance with animal protocols approved by the A*STAR-Biopolis Institutional Animal Care and Use Committee of Singapore (IACUC). 6-8 wk old female NOD/MrkBomTac-Prkdcscid mice were purchased from InVivos (Singapore). For PDX orthotopic xenotransplantation, tissue suspension was first prepared from whole tumour explant from mammary fat pad of immunodeficient mice. Whole tumours were washed in PBS, minced with sterile scalpel and triturated until cells could pass through needle bore. The PDX cell suspension was resuspended in reduced Matrigel (BD Bioscience, Cat No: 356230), and then 10 μl was injected into the mammary fat pad. Autoclips was used for primary wound closure. Mice were observed post-procedure for 1-2 hr, and their body weights and wound healing were monitored weekly. Tumours were measured by vernier caliper twice weekly and the tumour volume was calculated with the following formula: V=W×W×L/2.
For in vivo PDX model, each mouse bore one PDX tumour on one side of the mammary fat pad. After the tumours reach 100 mm^3, the mice were randomized into two groups: Vehicle treated control tumour (n=4) and paclitaxel treated tumour ([…]). […] Following the drug treatments, the tumours were monitored for approximately one month. […]

Data set [10] has as its system ER positive and ER negative breast cancer cell lines tumourspheres. Description: Tumoursphere growth in breast cancer cell lines with or without 1q21.3 amplification. The class given is cell-based. The following applies: increasing dose of pacritinib. On the procedure:
as §3, §4

“Also recorded” adds a separate entry of the source.

T1 sequence (P51617 whole entry): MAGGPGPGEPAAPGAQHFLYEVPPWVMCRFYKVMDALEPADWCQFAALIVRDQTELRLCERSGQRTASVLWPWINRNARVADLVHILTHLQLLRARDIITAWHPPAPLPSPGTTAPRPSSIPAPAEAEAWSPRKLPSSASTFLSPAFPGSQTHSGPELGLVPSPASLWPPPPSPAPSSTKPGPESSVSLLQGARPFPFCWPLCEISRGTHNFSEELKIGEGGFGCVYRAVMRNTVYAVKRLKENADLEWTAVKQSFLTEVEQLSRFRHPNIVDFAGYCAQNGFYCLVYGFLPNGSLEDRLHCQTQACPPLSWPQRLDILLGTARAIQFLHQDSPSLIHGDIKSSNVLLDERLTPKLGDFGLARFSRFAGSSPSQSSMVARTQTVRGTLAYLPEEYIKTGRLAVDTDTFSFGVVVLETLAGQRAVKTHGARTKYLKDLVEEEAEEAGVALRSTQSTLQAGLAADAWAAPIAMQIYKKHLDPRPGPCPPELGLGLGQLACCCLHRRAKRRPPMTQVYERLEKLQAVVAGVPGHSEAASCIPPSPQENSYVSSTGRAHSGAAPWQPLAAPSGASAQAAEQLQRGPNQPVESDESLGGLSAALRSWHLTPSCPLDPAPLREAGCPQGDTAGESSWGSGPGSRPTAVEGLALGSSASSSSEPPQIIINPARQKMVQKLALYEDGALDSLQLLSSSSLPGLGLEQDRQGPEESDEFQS

With `C1=C/COCc2cc(ccc2OCCN2CCCC2)Nc2nccc(n2)-c2cccc(c2)COC/1` [pacritinib], the number of tumourspheres entry in [1] is recorded as “little effect”; in [7] it was “strong tumoursphere inhibitory effect”. For the same compound, the “phosphorylation of IRAK1” value in data set [2] (MB468 cells, 6 hr pacritinib treatment, western blot) is “inhibition of phospho-IRAK1 and phospho-JAK2 within 6 hr; also recorded: effectively block the phosphorylation of both IRAK1 and JAK2 as early as 6 hours in a dose-dependent manner”. Further, the phospho-IRAK1 entry in data set [2] (patient-derived (PDX-derived) tumoursphere cells, 24 hr, pacritinib 2.5 μM, with and without IL-1) is “prolonged inhibition of phospho-IRAK1; also recorded: sustained inhibition of phospho-IRAK1”. The tumour growth entry is “substantial inhibition in tumour growth” in data set [3] and “no obvious effect” in [4]. Further, in [5], the “phospho-IRAK1 level in xenograft” value is reported as “downregulation of phospho-IRAK1”. For the same compound, the sensitivity to pacritinib entry in [6] is “sensitive to pacritinib treatment”. For the same compound, in data set [8], the IRAK1 inhibition result is recorded as “potent IRAK1 inhibitor”. Further, in [9], the tolerability result is recorded as “tolerated very well”. In addition, the “toxicity and body weight loss” value in [9] was “no obvious toxicity and body weight loss”. Besides, the “tumoursphere growth, 1q21.3 amplified versus non-amplified cell lines” value in data set [10] was “preferential growth inhibition of breast cancer cells containing amplified S100A8 and/or S100A9 genes; also recorded: more effective in impairing tumoursphere growth in cancer cell lines positive for 1q21.3 amplification compared to negative cell lines; also recorded: more sensitive to pacritinib treatment compared to cancer cells without 1q21.3 amplification”.
